In patent US10597383B2, “Bicyclic proline compounds” (Genentech, Inc., priority 2016, dated 2020):

Target: human TRPA1 (Homo sapiens (Human), UniProt O75762)
Experiment: hTRPA1 CHO Ca2+ AUC EVO (IC50); FLIPR Tetra block of cinnamaldehyde induced calcium influx
Format: cell-based
Settings: Table 1; CHO cells expressing TRPA1; 75 uM cinnamaldehyde (~EC80) as agonist
Experimental: IC50 ([…]) of compounds on the human and rat TRPA1 channels were determined using a FLIPR Tetra instrument. CHO cells expressing TRPA1 were plated into 384-well plates, incubated overnight at 37° C., and loaded with BD calcium indicator dye for 1 hr at 37° C. followed by 15 minutes. at room temperature. The assay buffer was Hank's Balanced Salt Solution (HBSS) containing 20 mM HEPES (pH readjusted to 7.4) along with 0.02% BSA.
Following dye load and plate cool down, compounds were added to the cells using FLIPR Tetra. Plates were then incubated with compounds for 20 minutes at room temperature prior to adding agonist. Following this incubation, ˜EC80 concentration of cinnamaldehyde (75 uM for human TRPA1 and 45 uM for rat TRPA1) was added to active the channels and block of cinnamaldehyde induced calcium influx was measured.
IC50 values were fit with a standard Hill function, keeping the Hill coefficient (n) fixed to 1.5. Fixing the Hill coefficient will generally reduce variability of the IC50 determination. The IC50 values were individually examined to make sure the MIN and MAX points were set correctly prior to validation of the results.

human TRPA1, sequence (O75762 whole entry): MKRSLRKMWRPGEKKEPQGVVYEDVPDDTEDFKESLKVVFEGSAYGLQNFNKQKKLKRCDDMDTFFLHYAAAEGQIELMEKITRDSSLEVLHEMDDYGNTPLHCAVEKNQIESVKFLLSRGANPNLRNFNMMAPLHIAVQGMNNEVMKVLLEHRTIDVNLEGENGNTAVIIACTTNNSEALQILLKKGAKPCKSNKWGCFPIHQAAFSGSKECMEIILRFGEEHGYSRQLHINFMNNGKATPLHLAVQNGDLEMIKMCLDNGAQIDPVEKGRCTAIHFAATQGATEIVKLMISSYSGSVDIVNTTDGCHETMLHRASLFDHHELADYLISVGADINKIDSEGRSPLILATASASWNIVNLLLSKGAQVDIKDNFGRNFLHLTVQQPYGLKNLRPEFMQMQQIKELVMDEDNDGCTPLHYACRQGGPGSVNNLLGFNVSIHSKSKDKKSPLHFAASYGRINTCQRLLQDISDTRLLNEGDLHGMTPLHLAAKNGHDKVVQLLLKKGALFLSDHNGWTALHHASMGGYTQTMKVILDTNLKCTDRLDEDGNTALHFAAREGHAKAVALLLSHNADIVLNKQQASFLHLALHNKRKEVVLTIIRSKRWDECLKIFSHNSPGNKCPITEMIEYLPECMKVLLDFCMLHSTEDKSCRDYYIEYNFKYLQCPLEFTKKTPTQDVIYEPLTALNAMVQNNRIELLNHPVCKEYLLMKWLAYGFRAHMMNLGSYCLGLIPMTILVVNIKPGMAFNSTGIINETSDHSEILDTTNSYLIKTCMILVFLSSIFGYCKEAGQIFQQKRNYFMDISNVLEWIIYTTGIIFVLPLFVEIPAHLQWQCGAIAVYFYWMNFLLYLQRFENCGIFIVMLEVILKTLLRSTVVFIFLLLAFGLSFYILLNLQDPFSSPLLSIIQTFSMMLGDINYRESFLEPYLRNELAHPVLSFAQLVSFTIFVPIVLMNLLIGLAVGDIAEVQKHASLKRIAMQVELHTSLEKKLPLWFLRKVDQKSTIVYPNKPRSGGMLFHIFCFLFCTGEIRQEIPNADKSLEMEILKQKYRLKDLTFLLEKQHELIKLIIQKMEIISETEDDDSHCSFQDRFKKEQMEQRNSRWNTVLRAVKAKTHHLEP

| SMILES | IC50 [nM] |
| --- | --- |
| O=C(NCc1cc(-c2cnc(C(F)(F)F)nc2)ncc1C(F)(F)F)[C@@H]1C2CC(C2)N1S(=O)(=O)c1ccc(F)cc1 [(2S)-3-(4-fluorophenyl)sulfonyl-N-[[5-(trifluoromethyl)-2-[2-(trifluoromethyl)pyrimidin-5-yl]-4-pyridyl]methyl]-3-azabicyclo[2.1.1]hexane-2-carboxamide] | 2.61 |
| O=C(NCc1cc(-c2cnc(C(F)(F)F)nc2)ncc1OC(F)(F)F)[C@@H]1C2CC(C2)N1S(=O)(=O)c1ccc(F)cc1 [(2S)-3-(4-fluorophenyl)sulfonyl-N-[[5-(trifluoromethoxy)-2-[2-(trifluoromethyl)pyrimidin-5-yl]-4-pyridyl]methyl]-3-azabicyclo[2.1.1]hexane-2-carboxamide] | 2.77 |

The next lines start with the values.

| IC50 [nM] | SMILES |
| --- | --- |
| 7.24 | O=C(NCc1cc(-c2cnc(C(F)(F)F)nc2)cc(C2CC2)n1)[C@@H]1C2CC(C2)N1S(=O)(=O)c1ccc(F)cc1 [(2S)-N-[[6-cyclopropyl-4-[2-(trifluoromethyl)pyrimidin-5-yl]-2-pyridyl]methyl]-3-(4-fluorophenyl)sulfonyl-3-azabicyclo[2.1.1]hexane-2-carboxamide] |
| 4.64 | O=C(NCc1cc(Cl)nc(-c2cnc(C(F)(F)F)nc2)c1)[C@@H]1C2CC(C2)N1S(=O)(=O)c1ccc(F)cc1 [(2S)-N-[[2-chloro-6-[2-(trifluoromethyl)pyrimidin-5-yl]-4-pyridyl]methyl]-3-(4-fluorophenyl)sulfonyl-3-azabicyclo[2.1.1]hexane-2-carboxamide] |
| 3.82 | O=C(NCc1cc(-c2cnc(C(F)(F)F)nc2)ncc1Br)[C@@H]1C2CC(C2)N1S(=O)(=O)c1ccc(F)cc1 [(2S)-N-[[5-bromo-2-[2-(trifluoromethyl)pyrimidin-5-yl]-4-pyridyl]methyl]-3-(4-fluorophenyl)sulfonyl-3-azabicyclo[2.1.1]hexane-2-carboxamide] |

Same assay, conditions: Table 3; CHO cells expressing TRPA1; 75 uM cinnamaldehyde (~EC80) as agonist

| SMILES | IC50 [nM] |
| --- | --- |
| Cn1nc(C(F)(F)F)cc1-c1ccc(F)c(CNC(=O)[C@@H]2C3CC(C3)N2S(=O)(=O)c2ccc(F)cc2)c1 [compound 18, (2S)-N-[[2-fluoro-5-[2-methyl-5-(trifluoromethyl)pyrazol-3-yl]phenyl]methyl]-3-(4-fluorophenyl)sulfonyl-3-azabicyclo[2.1.1]hexane-2-carboxamide] | 15.7 |
| O=C(NCc1cc(-c2cnc(C(F)(F)F)nc2)nc(OCC(F)(F)F)n1)[C@@H]1C2CC(C2)N1S(=O)(=O)c1ccc(F)cc1 [compound 35, (2S)-3-(4-fluorophenyl)sulfonyl-N-[[2-(2,2,2-trifluoroethoxy)-6-[2-(trifluoromethyl)pyrimidin-5-yl]pyrimidin-4-yl]methyl]-3-azabicyclo[2.1.1]hexane-2-carboxamide] | 4.24 |
| O=C(NCc1cc(-c2cnc(C(F)(F)F)nc2)nc(C2CC2)n1)[C@@H]1C2CC(C2)N1S(=O)(=O)c1ccc(F)cc1 [compound 10, (2S)-N-[[2-cyclopropyl-6-[2-(trifluoromethyl)pyrimidin-5-yl]pyrimidin-4-yl]methyl]-3-(4-fluorophenyl)sulfonyl-3-azabicyclo[2.1.1]hexane-2-carboxamide] | 2.15 |
| CC12CC(C1)[C@@H](C(=O)NCc1cc(-c3cnc(C(F)(F)F)nc3)c(F)cn1)N2S(=O)(=O)c1ccc(F)cc1 [compound 12, (2S)-3-(4-fluorophenyl)sulfonyl-N-[[5-fluoro-4-[2-(trifluoromethyl)pyrimidin-5-yl]-2-pyridyl]methyl]-4-methyl-3-azabicyclo[2.1.1]hexane-2-carboxamide] | 90.2 |
| N#Cc1cnc(-c2cnc(C(F)(F)F)nc2)cc1CNC(=O)[C@@H]1C2CC(C2)N1S(=O)(=O)c1ccc(F)cc1 [compound 8, (2S)-N-[[5-cyano-2-[2-(trifluoromethyl)pyrimidin-5-yl]-4-pyridyl]methyl]-3-(4-fluorophenyl)sulfonyl-3-azabicyclo[2.1.1]hexane-2-carboxamide] | 16 |

Next, values leading:

| IC50 [nM] | SMILES |
| --- | --- |
| 36.4 | O=C(NCc1ccnc(-c2cnc(C(F)(F)F)nc2)c1)[C@@H]1C2CC(C2)N1S(=O)(=O)c1ccc(F)cc1 [compound 4, (2S)-3-(4-fluorophenyl)sulfonyl-N-[[2-[2-(trifluoromethyl)pyrimidin-5-yl]-4-pyridyl]methyl]-3-azabicyclo[2.1.1]hexane-2-carboxamide] |
| 6.11 | O=C(NCc1cc(F)cc(-c2ccc(C(F)(F)F)nc2)c1)[C@@H]1C2CC(C2)N1S(=O)(=O)c1ccc(F)cc1 [compound 20, (2S)-3-(4-fluorophenyl)sulfonyl-N-[[3-fluoro-5-[6-(trifluoromethyl)-3-pyridyl]phenyl]methyl]-3-azabicyclo[2.1.1]hexane-2-carboxamide] |
| 8.97 | O=C(NCc1cc(F)cc(-c2cnc(C(F)(F)F)nc2)c1)[C@@H]1C2CC(C2)N1S(=O)(=O)c1ccc(F)cc1 [compound 19, (2S)-3-(4-fluorophenyl)sulfonyl-N-[[3-fluoro-5-[2-(trifluoromethyl)pyrimidin-5-yl]phenyl]methyl]-3-azabicyclo[2.1.1]hexane-2-carboxamide] |
| 4.64 | O=C(NCc1cc(Cl)nc(-c2cnc(C(F)(F)F)nc2)c1)[C@@H]1C2CC(C2)N1S(=O)(=O)c1ccc(F)cc1 [compound 5, (2S)-N-[[2-chloro-6-[2-(trifluoromethyl)pyrimidin-5-yl]-4-pyridyl]methyl]-3-(4-fluorophenyl)sulfonyl-3-azabicyclo[2.1.1]hexane-2-carboxamide] |
| 24.8 | O=C(NCc1cc(-c2ccc(C(F)(F)F)nc2)ncn1)[C@@H]1C2CC(C2)N1S(=O)(=O)c1ccc(F)cc1 [compound 3, (2S)-3-(4-fluorophenyl)sulfonyl-N-[[6-[6-(trifluoromethyl)-3-pyridyl]pyrimidin-4-yl]methyl]-3-azabicyclo[2.1.1]hexane-2-carboxamide] |
